The test system of series [1] is Hs578T. Nature of the series: 3D spheroid assay Hs578T. Conditions: Homo sapiens, Hs-578T, 96 h, 4 days treatment, read-out: IC50 3D spheroid cell viability. The format is cell-based. As for the experimental part:
(§1) Breast cancer cell lines were cultured in medium with or without 2% Matrigel (Corning, NY, USA) for 3 days in each 96-well ultra-low attachment round plate to form a single spheroid at a density of 3 × 10^3 cells/well. SJP1602 was dissolved in DMSO and treated for 4 days at concentrations ranging from 200 nM to 20 μM. Cell viability was quantified according to the manufacturer’s instructions using a CellTiter-Glo 3D cell viability assay (Promega, Madison, WI, USA). Luminescence was measured using the Tecan Spark 10M.

Series [2] concerns BT-549. Nature of the series: 3D spheroid assay BT-549. It is filed as cell-based. The settings on record: Homo sapiens, 96 h; BT-549, 4 days treatment; read-out: IC50 3D spheroid cell viability. On the procedure:
as §1

Series [3] deals with T1, FGFR3(h) (Homo sapiens, UniProt P22607).
T1 construct: purchased Eurofins KinaseProfiler
T1 sequence (P22607 23-806): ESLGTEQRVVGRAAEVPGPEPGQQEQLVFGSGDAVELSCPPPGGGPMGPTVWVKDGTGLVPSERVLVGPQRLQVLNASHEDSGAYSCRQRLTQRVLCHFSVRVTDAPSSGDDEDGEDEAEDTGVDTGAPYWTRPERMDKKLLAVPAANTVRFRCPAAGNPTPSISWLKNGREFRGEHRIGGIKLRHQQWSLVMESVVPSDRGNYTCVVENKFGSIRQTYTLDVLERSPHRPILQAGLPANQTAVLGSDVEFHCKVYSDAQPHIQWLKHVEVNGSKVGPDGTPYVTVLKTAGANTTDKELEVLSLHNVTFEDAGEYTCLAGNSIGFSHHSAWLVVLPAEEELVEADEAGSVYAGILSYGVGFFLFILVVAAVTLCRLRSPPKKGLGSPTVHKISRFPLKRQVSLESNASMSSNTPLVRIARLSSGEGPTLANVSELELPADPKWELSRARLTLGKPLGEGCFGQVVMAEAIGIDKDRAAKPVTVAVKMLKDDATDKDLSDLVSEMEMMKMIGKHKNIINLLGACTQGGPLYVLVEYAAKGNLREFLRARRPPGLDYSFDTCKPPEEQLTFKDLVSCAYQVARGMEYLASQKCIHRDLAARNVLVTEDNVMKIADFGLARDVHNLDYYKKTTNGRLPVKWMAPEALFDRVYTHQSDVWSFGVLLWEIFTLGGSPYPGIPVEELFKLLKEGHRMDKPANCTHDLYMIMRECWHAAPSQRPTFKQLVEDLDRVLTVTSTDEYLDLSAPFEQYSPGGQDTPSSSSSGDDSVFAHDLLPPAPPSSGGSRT
Kind of series: Eurofins kinase profiling. It is filed as biochemical. The settings on record: read-out: residual kinase activity FGFR3(h). Put shortly:
(§2)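 Single-point screen at 1 µM compound; radiometric read-out of kinase activity using radiolabeled phosphate, per standard KinaseProfiler protocol.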

For series [4], the target named is T2, Abl(h) (Homo sapiens, UniProt P00519).
T2 construct: purchased Eurofins KinaseProfiler
T2 sequence (P00519 whole entry): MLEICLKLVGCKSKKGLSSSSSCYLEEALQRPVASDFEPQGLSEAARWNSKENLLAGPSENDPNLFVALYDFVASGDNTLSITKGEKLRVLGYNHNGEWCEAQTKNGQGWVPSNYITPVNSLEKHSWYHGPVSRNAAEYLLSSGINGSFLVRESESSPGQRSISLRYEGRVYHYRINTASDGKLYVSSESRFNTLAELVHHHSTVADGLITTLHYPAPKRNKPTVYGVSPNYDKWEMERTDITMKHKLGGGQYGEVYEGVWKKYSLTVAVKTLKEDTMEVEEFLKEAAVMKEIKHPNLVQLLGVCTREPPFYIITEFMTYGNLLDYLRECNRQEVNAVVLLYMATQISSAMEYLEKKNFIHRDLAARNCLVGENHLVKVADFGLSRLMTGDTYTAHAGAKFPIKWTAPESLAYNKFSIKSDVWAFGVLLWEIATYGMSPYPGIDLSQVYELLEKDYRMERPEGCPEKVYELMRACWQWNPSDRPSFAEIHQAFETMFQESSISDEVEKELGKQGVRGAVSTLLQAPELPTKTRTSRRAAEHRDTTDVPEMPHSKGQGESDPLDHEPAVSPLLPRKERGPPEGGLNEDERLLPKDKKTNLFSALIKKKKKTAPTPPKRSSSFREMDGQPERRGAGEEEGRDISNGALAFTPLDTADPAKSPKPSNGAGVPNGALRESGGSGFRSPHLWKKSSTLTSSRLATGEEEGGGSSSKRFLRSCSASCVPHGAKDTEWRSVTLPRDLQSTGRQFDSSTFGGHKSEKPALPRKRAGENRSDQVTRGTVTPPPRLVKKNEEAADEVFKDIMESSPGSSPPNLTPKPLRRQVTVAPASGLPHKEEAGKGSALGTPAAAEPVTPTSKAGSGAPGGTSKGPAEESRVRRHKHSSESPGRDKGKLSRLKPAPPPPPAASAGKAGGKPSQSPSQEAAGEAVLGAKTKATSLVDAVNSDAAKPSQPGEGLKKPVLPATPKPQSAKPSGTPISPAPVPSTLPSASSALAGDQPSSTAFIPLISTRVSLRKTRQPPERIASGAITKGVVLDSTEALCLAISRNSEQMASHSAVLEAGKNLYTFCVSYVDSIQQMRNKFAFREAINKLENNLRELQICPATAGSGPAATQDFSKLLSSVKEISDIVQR
Kind of series: Eurofins kinase profiling. The format is biochemical. The settings on record: read-out: residual kinase activity Abl(h). The method in brief:
as §2

Series [5] relates to BT-20. Kind of series: 3D spheroid assay BT-20. It is filed as cell-based. Conditions: Homo sapiens, 96 h; BT-20, 4 days treatment; read-out: IC50 3D spheroid cell viability. As for the experimental part:
as §1

In series [6] the test system is 4T1. Nature of the series: 3D spheroid assay 4T1. Conditions: Mus musculus, 96 h; 4T1, 4 days treatment; read-out: IC50 3D spheroid cell viability. It is filed as cell-based. As for the experimental part:
as §1

Series [7] deals with HCC70. Kind of series: 3D spheroid assay HCC70. It is filed as cell-based. Conditions: Homo sapiens, 96 h; HCC70, 4 days treatment; read-out: IC50 3D spheroid cell viability. As for the experimental part: as §1
The subject of series [8] is MDA-MB-231 cells. Kind of series: Transwell cell migration assay. It is filed as cell-based, human. The settings on record: 5 µM, 16 h. As for the experimental part: Cell migration capacity was analyzed using the transwell migration assay. The 24-well chambers (8 μm pore size) were obtained from Corning (Corning, NY, USA). Cells treated with vehicle or FAK inhibitors (SJP1602, VS-6063, GSK2256098) at a concentration of 5 μM were resuspended in serum-free media and 5 × 10^4 cells were added to the upper compartment of the transwell chambers. Fresh culture medium with 5% FBS was added to the lower compartment. After 16 h, cells on the upper side of the filter were removed using cotton swabs. The underside of the filter was fixed in 100% methanol, washed in PBS, and stained using crystal violet. Migrated cells were analyzed using a microscope (Nikon, TE2000). Image analysis was performed using the color analysis function in Adobe Photoshop 2021 (Version 22.4.2, Adobe (San Jose, CA, USA)). Quantitative data were obtained from color measurement records in Adobe Photoshop 2021.

The test system of series [9] is MDA-MB-231. Kind of series: 3D spheroid assay MDA-MB-231. Conditions: Homo sapiens, 96 h; MDA-MB-231, 2% Matrigel, 4 days treatment; read-out: IC50 3D spheroid cell viability. The format is cell-based. On the procedure: as §1
Series [10] can be described thus: Cytotoxicity on normal cell line WI38. The settings on record: human, WI38 cells (normal cell line); read-out: Cytotoxicity on Normal Cell Lines IC50. It is filed as cell-based.
For series [11], the target named is T3, FAK [pY397] in MDA-MB-453 cells (Homo sapiens, UniProt Q05397).
T3 construct: endogenous in cells; host or cells: MDA-MB-453
T3 sequence (Q05397 whole entry): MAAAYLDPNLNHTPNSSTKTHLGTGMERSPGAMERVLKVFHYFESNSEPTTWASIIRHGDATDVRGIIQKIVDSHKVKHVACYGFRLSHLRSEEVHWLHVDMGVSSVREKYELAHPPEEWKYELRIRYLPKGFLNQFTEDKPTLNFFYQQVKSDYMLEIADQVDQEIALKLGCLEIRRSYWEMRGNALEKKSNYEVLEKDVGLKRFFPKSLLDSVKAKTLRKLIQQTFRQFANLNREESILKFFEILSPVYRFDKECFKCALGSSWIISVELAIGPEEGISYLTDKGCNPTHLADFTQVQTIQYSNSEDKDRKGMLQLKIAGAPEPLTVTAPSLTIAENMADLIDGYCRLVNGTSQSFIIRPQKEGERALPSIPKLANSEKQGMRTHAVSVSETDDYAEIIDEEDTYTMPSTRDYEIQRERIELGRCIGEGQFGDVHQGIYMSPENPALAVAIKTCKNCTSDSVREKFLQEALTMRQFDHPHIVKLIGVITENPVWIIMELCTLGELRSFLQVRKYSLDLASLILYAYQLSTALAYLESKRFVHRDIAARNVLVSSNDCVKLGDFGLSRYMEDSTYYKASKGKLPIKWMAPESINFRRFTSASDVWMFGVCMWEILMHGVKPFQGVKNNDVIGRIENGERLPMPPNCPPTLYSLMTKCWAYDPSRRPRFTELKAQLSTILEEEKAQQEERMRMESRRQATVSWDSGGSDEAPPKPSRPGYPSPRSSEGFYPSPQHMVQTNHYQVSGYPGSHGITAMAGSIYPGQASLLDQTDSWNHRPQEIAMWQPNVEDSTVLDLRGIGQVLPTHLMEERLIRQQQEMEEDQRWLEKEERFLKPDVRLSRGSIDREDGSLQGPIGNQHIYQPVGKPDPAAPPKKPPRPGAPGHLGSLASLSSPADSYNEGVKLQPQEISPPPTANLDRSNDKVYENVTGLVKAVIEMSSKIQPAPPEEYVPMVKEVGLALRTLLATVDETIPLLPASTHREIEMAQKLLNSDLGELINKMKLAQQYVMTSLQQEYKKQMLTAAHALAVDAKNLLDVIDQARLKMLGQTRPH
Nature of the series: FAK [pY397] ELISA in MDA-MB-453 cells. The settings on record: MDA-MB-453, 1 h treatment, mean ± SEM (n = 3); read-out: IC50 FAK phosphorylation (pY397 ELISA). The format is cell-based. On the procedure:
(§3) TNBC cells were seeded into 60 mm dishes at a density of 1 × 10^6 cells/dish in 5 mL of culture media. After 24 h, cells were treated with concentrations ranging from 1 nM to 10 μM of SJP1602 for 1 h, and cell lysates were prepared to detect phospho-FAK levels. The FAK [pY397] enzyme-linked immunosorbent assay was performed according to the manufacturer’s instructions. The absorbance at 450 nm was measured to quantify the results.

The nature of series [12]: Cytotoxicity on normal cell line HEK293T. It is filed as cell-based. The settings on record: human, HEK293T cells (normal cell line); read-out: Cytotoxicity on Normal Cell Lines IC50.
Series [13] concerns MDA-MB-231 xenograft. Kind of series: MDA-MB-231 xenograft mouse model.
Experimental: (§4) Upon establishment of tumors, with an average tumor volume reaching approximately 100 mm^3, mice were grouped and subjected to daily oral dosing. […] The duration of drug administration was defined for 2 weeks based on the growth rate of the vehicle group of each xenografted tumor. The tumor volume was measured three times a week for potency measurement, and the body weight of mice was also measured three times a week for toxicity evaluation in vivo.
Series [14] has as its system BT-549 xenograft. Kind of series: BT-549 xenograft mouse model.
Experimental: as §4
Series [15] addresses T4, FAK [pY397] in HCC70 cells (Homo sapiens, UniProt Q05397).
T4 construct: endogenous in cells; host or cells: HCC70
Kind of series: FAK [pY397] ELISA in HCC70 cells. The format is cell-based. The settings on record: HCC70, 1 h treatment, mean ± SEM (n = 3); read-out: IC50 FAK phosphorylation (pY397 ELISA). On the procedure:
as §3

The test system of series [16] is MDA-MB-453 xenograft. Nature of the series: MDA-MB-453 xenograft mouse model. Conditions: for TGI: 56 days.
Experimental: as §4
Series [17] is described as follows: Cytotoxicity on normal cell line Fa2N4. It is filed as cell-based. The settings on record: human, Fa2N4 cells (normal cell line); read-out: Cytotoxicity on Normal Cell Lines IC50.
Series [18] deals with MDA-MB-231 cells. Kind of series: Colony formation assay. The format is cell-based, human. The settings on record: 1 μM or 2 μM, 11 days. On the procedure: MDA-MB-231 cells were seeded at 2.5 × 10^2 cells/well in 12-well plates. FAK inhibitors (SJP1602, VS-6063, GSK2256098) were added 24 h post seeding without changing the media. After 7 days, the cells were replaced with fresh media containing 10% FBS and the same initial concentration of the FAK inhibitor. After 11 days, the cells were fixed with 4% PFA for 10 m at room temperature and stained with 0.5% crystal violet dissolved in 25% methanol for 20 min at room temperature. The cells were then washed with distilled water, dried, and images of the entire plate were obtained.

Molecules are shown by their SMILES. Several values for one entry are separate records, joined by “and”; a condition that tells them apart may be missing. Equal values may be shown once.

T4 sequence (Q05397 whole entry): as above

For `CONC(=O)c1ccccc1Nc1cc(Nc2cc(C)nn2C(C)C)ncc1Cl` [GSK2256098], the half-inhibitory concentration (IC50) in series [1] is above 10 µM; in series [2], above 10 µM; in series [5] it was above 10 µM; in series [6], above 10000 nM; in [7], above 10 µM; in [9] it was 1120 nM. The remaining activity at 1 µM is 91% in [3] and 99% in series [4]. In addition, the “serum-stimulated migration of MDA-MB-231 cells” value in [8] is listed as “did not affect”.
`CNC(=O)c1cccc(C)c1Nc1nc(Nc2ccc(N3CCN(C4C5CC6CC4CC(O)(C6)C5)CC3)cc2OC)ncc1C(F)(F)F` (centres unmarked) [SJP1602, 2-((2-((4-(4-((2s,5r)-5-hydroxyadamantan-2-yl)piperazin-1-yl)-2-methoxyphenyl)amino)-5-(trifluoromethyl)pyrimidin-4-yl)amino)-N,3-dimethylbenzamide]: the IC50 was 7.28 µM in series [10]; 43 ± 16 nM in [11]; above 10 µM in series [1]; above 10 µM in series [12]; 4.71 µM in [2]; 2.53 µM in series [5]. The IC50 in series [6] was 184 nM; in [15] it was 83 ± 17 nM; in series [17], 9.62 µM; in [7], 1.45 µM; in series [9] it was 742 nM. Besides, the TGI was 72% and 72.1% in series [13] (20 mg/kg po QD, day 14, 20 mg/kg); 74% in series [13] (40 mg/kg po QD, day 14, 40 mg/kg); 81% and 81.3% in series [13] (80 mg/kg po QD, day 14, 80 mg/kg); 76.0% in [14] (20 mg/kg po QD); 77.5% in series [14] (80 mg/kg po QD); 88.9% in series [16] (20 mg/kg po QD). Moreover, the TGI in series [16] (80 mg/kg po QD) amounted to 114.1%. For the same compound, the “tumor mass and weight” value in series [13] (80 mg/kg, day 14) is “significant reduction”. Further, the remaining activity at 1 µM was determined as 86% in [3] and 76% in series [4]. The “tumor growth inhibition (in words)” value in [14] (20 mg/kg) was “pronounced inhibition of cancer growth”. The tumor weight result in [14] (80 mg/kg, day 21) is listed as “did not statistically significantly decrease”. Further, the “tumor volume and weight” value in series [16] (80 mg/kg, day 56) is reported as “substantial reduction”. In addition, the “serum-stimulated migration of MDA-MB-231 cells” value in [8] is given as “considerably reduced”. Also, the “formation of MDA-MB-231 colonies” value in series [18] was “dose-dependent decrease”.
For `CNC(=O)c1ccc(Nc2ncc(C(F)(F)F)c(NCc3nccnc3N(C)S(C)(=O)=O)n2)cc1` [VS-6063, Defactinib], the half-inhibitory concentration (IC50) in [1] was 4.49 µM; in [2], above 10 µM; in series [5], above 10 µM; in [6] it was 1190 nM; in series [7], 8.18 µM; in [9], 427 nM. The TGI in series [13] (80 mg/kg po QD, day 14) was found to be 54.6%; in series [14] (80 mg/kg po QD), 10.1%; in series [16] (80 mg/kg po QD), 110.9%. For the same compound, the remaining activity at 1 µM is 44% in [3] and 57% in [4]. The “tumor growth inhibition (in words)” value in [14] (80 mg/kg) was “ineffective”.
